Each block holds one molecule with its values, some of them ahead of it.
Key:
TWIK-1 [1] = biological target: T1, TWIK-1 (Homo sapiens, UniProt O00180); test: Imposed voltage (two-microelectrode voltage-clamp) recording of TWIK-1 K+ currents in Xenopus oocytes injected with TWIK-1 cRNA; assay type: cell-based; parameters: expressed in transfected cells; host or cells: Xenopus laevis oocytes injected with cRNA transcribed from pEXO-TWIK-1; conditions: for sensitivity of the TWIK-1 channel to K+ channel openers: 100 μM
T1 sequence (O00180 1-336): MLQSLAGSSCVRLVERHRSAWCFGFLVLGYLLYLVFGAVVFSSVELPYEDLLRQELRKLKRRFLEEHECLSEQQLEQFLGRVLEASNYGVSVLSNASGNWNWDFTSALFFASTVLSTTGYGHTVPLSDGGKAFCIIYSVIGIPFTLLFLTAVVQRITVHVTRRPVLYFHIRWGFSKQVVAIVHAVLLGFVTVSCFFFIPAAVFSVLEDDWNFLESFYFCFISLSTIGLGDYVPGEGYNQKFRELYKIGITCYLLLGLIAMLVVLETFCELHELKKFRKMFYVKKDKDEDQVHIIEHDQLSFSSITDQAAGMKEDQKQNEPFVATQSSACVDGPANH
Method: A complementary RNA (cRNA) was transcribed of this construction and injected in the oocytes of X. laevis.
The TWIK-1 coding sequence was amplified using a low-error rate DNA polymerase (Pwo DNA pol, Boehringer) and subcloned in the plasmid pEXOii so as to yield pEXO-TWIK-1. Mutations were performed using the whole plasmid pEXO-TWIK-1 with a highly reliable PCR extension kit (Boehringer) and two adjacent primers. […] The product of the PCR was linearized by the enzyme BamHI and the cRNA were synthesized using a T7 RNA polymerase (Stratagene).
In a 0.3-ml perfusion chamber, a single oocyte was impaled on two standard glass microelectrodes (0.5–2.0 MW) charged with 3 M KCl and maintained under voltage-clamp with a Dagan TEV200 amplifier. […] Stimulation of the preparation, data acquisition and analyses were carried out with the pClamp program (Axon Instruments, USA).

TWIK-1 [2] = biological target: T1, TWIK-1; test: Single channel patch-clamp recordings (attached and inside-out patch) of TWIK-1 in oocytes
Method: The pipettes were filled with a strong K^+ solution (40 mM KCl, 100 mM of potassium methane sulfonate, 1.8 mM CaCl2, 2 m M MgCl2 and 5 mM HEPES adjusted to pH 7.4 with KOH). 100 μM of GdCl3 was added to the pipette solution to inhibit the action of the activated channels. The inside-out patches were perfused with a solution containing 140 m M KCl, 10 mM CaCl2, 5 mM HEPES adjusted to pH 7.2 with KOH and 5 mM EGTA added daily. The single channel signals were filtered at 3.5 kHz and analyzed with the Biopatch program (Bio-Logic, Grenoble, France).

[3] = read-out: inhibition of TWIK-1 currents

SMILES: CC[N+](CC)(CC)CC [TEA]
inhibition of TWIK-1 currents (TWIK-1 [1]; 20 mM): 30%

effect on the activity of TWIK-1 (TWIK-1 [1]; 300 μM): does not affect
SMILES: Nc1ncnc2c1nc(Cl)n2[C@@H]1O[C@@H]2COP(=O)(O)O[C@H]2[C@H]1O [8-Cl-AMPc]

SMILES: Nc1ccncc1 [4-aminopyridine]
inhibition at 1000 µM (TWIK-1 [1]; 1 mM): < 10%

SMILES: [Ba+2] [Ba^2+]
IC50 (TWIK-1 [1]; Xenopus oocytes, +30 mV depolarization from HP -80 mV, read-out: IC50 of inhibition of the K+ currents of TWIK-1): 100 µM

sensitivity of channel activity to acidification of the internal solution (TWIK-1 [2]; after excision of the patch, bubbling of CO2): insensitive
reduction in the TWIK-1 currents (of control amplitude) (TWIK-1 [1]; intracellular acidification by superfusion with CO2-enriched solution): greater than 95%
SMILES: O=C=O [CO2]

inhibition at 30 µM (TWIK-1 [1]): < 10%
SMILES: COc1ccc(Cl)cc1C(=O)NCCc1ccc(S(=O)(=O)NC(=O)NC2CCCCC2)cc1 [glibenclamide]

inhibition at 30 µM (TWIK-1 [1]): < 10%
SMILES: CCCCCCC[N+](CC)(CC)CCCCc1ccc(Cl)cc1 [clofilium]

SMILES: CNc1ccc2oc(C[C@H]3O[C@@]4(CC[C@H]3C)O[C@H]([C@H](C)C(=O)c3ccc[nH]3)[C@H](C)C[C@H]4C)nc2c1C(=O)O [A23187]
effect on the properties of the TWIK-1 channel (TWIK-1 [1]; 1 μM, elevation of cytoplasmic Ca2+): without effect

SMILES: CCCCCCCCCCCCCC(=O)O[C@@H]1[C@@H](C)[C@@]2(O)[C@@H](C=C(CO)C[C@]3(O)C(=O)C(C)=C[C@@H]23)[C@@H]2C(C)(C)[C@]12OC(C)=O [PMA, phorbol-12 myristate acetate]
channels revealed in an attached patch initially expressing a single channel (TWIK-1 [2]; attached patch, 30 nM PMA, +60 mV): at least five channels
effect on the TWIK-1 currents (TWIK-1 [1]; 30 nM, perfusion 10 minutes): increases the TWIK-1 currents

SMILES: CCCCc1oc2ccccc2c1C(=O)c1cc(I)c(OCCN(CC)CC)c(I)c1 [amiodarone]
inhibition at 100 µM (TWIK-1 [1]; [3]): < 10%

SMILES: Nc1ncnc2c1ncn2[C@@H]1O[C@H](COP(=O)(O)OP(=O)(O)OP(=O)(O)O)[C@@H](O)[C@H]1O [ATP]
effect on the activity of the TWIK-1 channel (TWIK-1 [2]; excised patch perfused with 10 mM): does not induce any effect

sensitivity of the TWIK-1 channel to K+ channel openers (TWIK-1 [1]): not sensitive
SMILES: CC(N/C(=N\C#N)Nc1ccncc1)C(C)(C)C (stereo not drawn) [pinacidil]

SMILES: CC(C)C[C@@H]1NC(=O)[C@H](C)NC(=O)[C@H]([C@@H](C)O)NC(=O)[C@H](CCC(=O)O)NC(=O)[C@@H]2CCCN2C(=O)[C@H](C)NC(=O)[C@H](CCCCN)NC(=O)[C@@H]2CSSC[C@@H](C(=O)N[C@@H](CCC(N)=O)C(=O)N[C@@H](CCC(N)=O)C(=O)N[C@@H](Cc3cnc[nH]3)C(N)=O)NC(=O)[C@H](CCCNC(=N)N)NC(=O)[C@H](CCCNC(=N)N)NC(=O)[C@H](C)NC(=O)[C@H](CSSC[C@H](N)C(=O)N[C@@H](CC(N)=O)C(=O)N2)NC1=O [apamin]
inhibition at 0.3 µM (TWIK-1 [1]; [3]): < 10%

sensitivity of the TWIK-1 channel to K+ channel openers (TWIK-1 [1]): not sensitive
SMILES: CC1(C)Oc2ccc(C#N)cc2C(N2CCCC2=O)C1O (stereo not drawn) [cromakaline]

SMILES: CCCCCCCCCC(=O)O[C@@H]1[C@@H](C)[C@@]2(O)[C@@H](C=C(CO)C[C@@]3(O)C(=O)C(C)=C[C@@H]23)[C@@H]2C(C)(C)[C@]12OC(=O)CCCCCCCCC [PDA, 4α-phorbol-12, 13 didecanoate]
effect on the TWIK-1 currents (TWIK-1 [1]; 1 μM): has no effect

SMILES: O=[N+]([O-])c1ccc(O)c([N+](=O)[O-])c1 [DNP, dinitrophenol]
reduction in the TWIK-1 currents (of control amplitude) (TWIK-1 [1]; intracellular acidification by DNP, 1 mM): 80%

Source: US7067625B1, “Isolated TWIK-1 potassium channel proteins” (Centre National de la Recherche Scientifique - CNRS, priority 1996, dated 2006)
